Data reported in patent publication US20100234358A1, “NERAMEXANE FOR THE TREATMENT OF NYSTAGMUS” (MERZ PHARMA GMBH & CO. KGAA, priority 2007, published 2010).

Key:
[1] = test system: congenital idiopathic and acquired nystagmus; conditions: human, in vivo; cited from earlier work
[2] = test system: acquired pendular nystagmus due to multiple sclerosis; conditions: in vivo; cited from earlier work
[3] = test system: N-methyl-D-aspartate (NMDA) receptors; conditions: cited from earlier work
[4] = test system: congenital, idiopathic nystagmus (subgroup: acquired nystagmus in MS patients); experiment: Double blind placebo controlled pilot trial of neramexane for treatment of nystagmus; type: in vivo, human; conditions: as compared to the placebo group, Neramexane mesylate up to 75 mg/d, 7 weeks
Experimental: The objective of this pilot project is to conduct a clinical trial to assess the efficacy of neramexane as a treatment for nystagmus.
The primary objective of this study is to investigate the safety and efficacy of Neramexane mesylate at daily doses of up to 75 mg in the treatment of congenital, idiopathic nystagmus in comparison to placebo. In addition, a subgroup of up to 20 MS patients suffering from acquired nystagmus are included and analyzed in an exploratory manner. In both patient groups, effects of treatment is assessed in comparison with placebo using a two-period cross-over design (two treatment periods of 7 weeks each, separated by a wash-out phase.
The study is designed as a randomized, double-blind placebo-controlled, pilot study using a two-period cross-over design. Suitable patients are randomly assigned to one of the two treatment sequences of the cross-over trial (sequence A-B or B-A), i.e. double-blind treatment with Neramexane (A) and matching placebo tablets (B).
Patients with congenital nystagmus (no pathology other than nystagmus; primary analysis population) or acquired nystagmus subsequent to MS (exploratory analysis only) • male or female outpatients aged between 18 and 80 years (inclusive) at screening; • patients with a metric visual acuity (VA) of 6/9 or lower 6/9); • for females of childbearing potential (last menses less than one year prior to enrollment): negative pregnancy test at baseline; either surgically sterile or use of a medically accepted method of contraception during the entire duration of the study; • congenital idiopathic nystagmus patients: uneventful gross neurological examination; • MS patients: diagnosis ‘multiple sclerosis’ as confirmed on the basis of McDonald criteria; • normal results of electroretinography (ERG) and visually evoked potential (VEP) testing; historical results may be accepted (period of acceptability to be defined) • patients having given written informed consent; • patient expected and willing to comply with the scheduled visits, dosing scheme (in particular placebo), and other requirements of the study; • results of normal physical examination, electrocardiogram (ECG), and safety laboratory at screening, or abnormal findings which are judged not clinically significant by the investigator; • Refraction prior to enrolment and, if required, prescription and receipt of new glasses or contact lenses prior to baseline visual acuity measurement
Neramexane mesylate 25 mg modified release tablets and matching placebo tablets are administered as film coated tablets. […]
Visual acuity (VA) is the standard by which the outcomes of drug therapy in nystagmus are measured in the framework of clinical trials. […]

Compound	effectiveness in the treatment of congenital idiopathic and acquired nystagmus [1]	activity in acquired pendular nystagmus due to multiple sclerosis [2]	NMDA-receptor affinity / mode of antagonism [3]	secondary outcome: expanded nystagmus acuity function [4]	secondary outcome: nystagmus intensity [4]	secondary outcome: reading ability [4]	primary outcomes, such as visual acuity ([4]; two-period cross-over)
CC12CC3CC(C)(C1)CC(N)(C3)C2 [memantine]	may be effective	demonstrated activity					
CC1(C)CC(C)(C)CC(C)(N)C1 [neramexane, 1-amino-1,3,3,5,5-pentamethylcyclohexane]			low to moderate-affinity, non-competitive NMDA-receptor antagonist	improvement	improvement	improvement	improvement
